Test [1] deals with DNA damage-inducible transcript 3 protein (Mus musculus, UniProt P35639). Type of test: functional, Cricetulus griseus.
Test [2] can be described thus: Vero E6 cell cytotoxicity, dose response, cytotoxicity control for non-replicating M. tuberculosis project, secondary assay (AID 492998). Type of test: functional, VeroE6. The note with it: Vero C1008.
A further test concerns the target X-box-binding protein 1 (Homo sapiens, UniProt P17861). The test is classed as functional, Cricetulus griseus.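 Note: confirmatory dose-response counter-screen serving a CHOP assay.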
Test [3] in a line: alpha-synuclein stem-loop luciferase translation blockers – H4 neuroglioma cells, luminescence, confirmation (AID 1988). Type of test: functional, cell-based.
Test [4] in a line: Luminescence Cell-Based Dose Response HTS to Identify Activators of 5'UTR Stem-Loop Driven Prion Protein mRNA Translation in H4-C Neuroglioblastoma Cells. [Related pubchem assays: 1829 (Project Summary), 1814 (Primary HTS)]. Type of test: functional.
A short description of test [5]: luciferase reporter signal reduction – luminescence, H4-C neuroglioblastoma cells, dose response (AID 2458).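 Note: H4 neuroglioblastoma cells stably carrying a luciferase reporter gene fusion.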 Type of test: functional, cell-based.
The next test is described as follows: cells. The test is classed as functional, cell-based.
Test [6] can be described thus: Luminescence Cell-Based Dose HTS Response to Identify Inhibitors of 5'UTR Stem-Loop Driven Prion Protein mRNA Translation in H4-C Neuroglioblastoma Cells. [Related pubchem assays (depositor defined):AID1814, AID1827]. The test is classed as functional.
Test [7] in a line: luciferase reporter signal suppression in cells – H4 neuroglioma cells, luminescence, dose response (AID 1990). Type of test: functional, cell-based.
Test [8] is described as follows: Luminescence Cell-Based Dose Response HTS to Identify Inhibitors of Luciferase Translation or Activity in H4-C Neuroglioblastoma Cells. [Related pubchem assays: 1813 (Primary HTS), 1827 (Project Summary)]. The test is classed as functional.
The nature of test [9]: DRD fibroblast viability loss – cell-based, non-viral oncogenic, luminescence, dose response (AID 1934). The test is classed as functional. The note with it: Homo sapiens.
The subject of test [10] is BJ. Put plainly: BJ-TERT fibroblast viability loss – cell-based, RAS-independent, luminescence, dose response (AID 1933). The test is classed as functional. Conditions: Homo sapiens.
A short description of test [11]: Luminescence Cell-Based Dose Response HTS to Identify Activators of Luciferase Translation or Activity in H4-C Neuroglioblastoma Cells. [Related pubchem assays: 1829 (Project Summary), 1814 (Primary HTS)]. Type of test: functional.
A short description of test [12]: Luminescence Cell-Based Dose Retest to Confirm Activators of 5'UTR Stem-Loop Driven Alpha-Synuclein mRNA Translation in H4 Neuroglioblastoma Cells. [Related pubchem assays (depositor defined):AID1813, AID1829]. Type of test: functional.
Test [13] relates to BJ. The test can be described thus: cells. Type of test: functional, cell-based. The note with it: Homo sapiens.
Test [14] can be described thus: Luminescence Cell-Based Dose Confirmation HTS to Identify Inhibitors of 5'UTR Stem-Loop Driven Alpha-Synuclein mRNA Translation in H4 Neuroglioblastoma Cells. [Related pubchem assays: 1827 (Project Summary), 1813 (Primary HTS)]. Type of test: functional.
Test [15] deals with BJ. The test can be described thus: BJ-TERT-LT-ST fibroblast viability loss – cell-based, RAS-independent, luminescence, dose response (AID 1935).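 Note: BJ fibroblasts immortalized with TERT plus LT and ST oncogenes.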 The note with it: Homo sapiens. The test is classed as functional.
Test [16] can be described thus: alpha-synuclein stem-loop translation blockers – luminescence, H4 neuroglioblastoma cells, dose confirmation, confirmation (AID 2454).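 Note: H4 neuroglioblastoma cells carrying an alpha-synuclein 5'UTR luciferase reporter; potency for inhibition of the luciferase signal.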 The test is classed as functional, cell-based.
Test [17] has as its target T1, DNA repair protein RAD52 homolog (Homo sapiens, UniProt P43351).
T1 sequence (P43351 whole entry): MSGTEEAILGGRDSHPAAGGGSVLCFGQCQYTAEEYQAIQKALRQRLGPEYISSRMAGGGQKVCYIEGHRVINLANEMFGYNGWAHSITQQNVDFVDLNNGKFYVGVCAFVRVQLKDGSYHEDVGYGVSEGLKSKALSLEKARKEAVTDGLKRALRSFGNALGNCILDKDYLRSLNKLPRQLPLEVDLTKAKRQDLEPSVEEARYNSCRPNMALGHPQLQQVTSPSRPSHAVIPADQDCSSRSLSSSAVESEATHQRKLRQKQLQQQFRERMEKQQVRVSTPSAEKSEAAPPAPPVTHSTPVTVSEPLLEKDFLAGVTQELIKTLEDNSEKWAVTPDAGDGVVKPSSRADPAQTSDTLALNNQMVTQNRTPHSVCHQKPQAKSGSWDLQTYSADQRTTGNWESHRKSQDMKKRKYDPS
The test is classed as functional, biochemical.

For test [18], the target named is T2, Ubiquitin-conjugating enzyme E2 N (Homo sapiens, UniProt P61088).
T2 sequence (P61088 whole entry): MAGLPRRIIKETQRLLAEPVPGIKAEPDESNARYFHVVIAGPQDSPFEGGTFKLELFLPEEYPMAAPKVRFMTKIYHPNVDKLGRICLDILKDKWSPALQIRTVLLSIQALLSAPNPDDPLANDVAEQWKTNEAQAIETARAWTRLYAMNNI
Type of test: functional.

The target in test [19] is T2, Ubiquitin-conjugating enzyme E2 N. The test is classed as functional. This is another data set of the same source.
In the next test the target is T3, Bcl-2-related protein A1 (Mus musculus, UniProt Q07440).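 Note: confirmatory dose–response counterscreen on Bfl-1, used to check hits from a UBC13 polyubiquitin inhibitor campaign.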
T3 sequence (Q07440 whole entry): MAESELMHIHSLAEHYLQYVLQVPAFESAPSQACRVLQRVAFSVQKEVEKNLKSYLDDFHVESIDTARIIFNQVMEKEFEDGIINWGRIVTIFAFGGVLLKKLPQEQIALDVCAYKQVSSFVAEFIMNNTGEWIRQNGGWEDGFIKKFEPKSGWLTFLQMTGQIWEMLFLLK
The test is classed as functional.

Test [20] has as its target T4, Type-1 angiotensin II receptor (Homo sapiens, UniProt P30556).
T4 sequence (P30556 whole entry): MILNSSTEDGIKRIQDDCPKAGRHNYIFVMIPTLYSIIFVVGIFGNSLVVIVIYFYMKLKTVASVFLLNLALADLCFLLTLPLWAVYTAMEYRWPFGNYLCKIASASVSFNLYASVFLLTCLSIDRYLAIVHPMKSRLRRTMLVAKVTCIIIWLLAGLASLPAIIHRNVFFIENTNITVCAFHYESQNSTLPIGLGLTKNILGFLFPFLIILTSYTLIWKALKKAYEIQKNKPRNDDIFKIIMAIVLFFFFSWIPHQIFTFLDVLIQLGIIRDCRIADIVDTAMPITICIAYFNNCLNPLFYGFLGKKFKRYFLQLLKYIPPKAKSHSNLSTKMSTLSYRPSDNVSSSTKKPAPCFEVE
The test can be described thus: agonist activity at AGTR1 – cell-based, uHTS hits, selectivity assay for APJ receptor agonist project, dose response (AID 488865).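 Note: beta-arrestin recruitment to AT1 measured by enzyme fragment complementation luminescence.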 Type of test: functional.

For test [21], the target named is T5, Tyrosine-protein phosphatase non-receptor type 22 (Homo sapiens, UniProt Q9Y2R2).
T5 sequence (Q9Y2R2 whole entry): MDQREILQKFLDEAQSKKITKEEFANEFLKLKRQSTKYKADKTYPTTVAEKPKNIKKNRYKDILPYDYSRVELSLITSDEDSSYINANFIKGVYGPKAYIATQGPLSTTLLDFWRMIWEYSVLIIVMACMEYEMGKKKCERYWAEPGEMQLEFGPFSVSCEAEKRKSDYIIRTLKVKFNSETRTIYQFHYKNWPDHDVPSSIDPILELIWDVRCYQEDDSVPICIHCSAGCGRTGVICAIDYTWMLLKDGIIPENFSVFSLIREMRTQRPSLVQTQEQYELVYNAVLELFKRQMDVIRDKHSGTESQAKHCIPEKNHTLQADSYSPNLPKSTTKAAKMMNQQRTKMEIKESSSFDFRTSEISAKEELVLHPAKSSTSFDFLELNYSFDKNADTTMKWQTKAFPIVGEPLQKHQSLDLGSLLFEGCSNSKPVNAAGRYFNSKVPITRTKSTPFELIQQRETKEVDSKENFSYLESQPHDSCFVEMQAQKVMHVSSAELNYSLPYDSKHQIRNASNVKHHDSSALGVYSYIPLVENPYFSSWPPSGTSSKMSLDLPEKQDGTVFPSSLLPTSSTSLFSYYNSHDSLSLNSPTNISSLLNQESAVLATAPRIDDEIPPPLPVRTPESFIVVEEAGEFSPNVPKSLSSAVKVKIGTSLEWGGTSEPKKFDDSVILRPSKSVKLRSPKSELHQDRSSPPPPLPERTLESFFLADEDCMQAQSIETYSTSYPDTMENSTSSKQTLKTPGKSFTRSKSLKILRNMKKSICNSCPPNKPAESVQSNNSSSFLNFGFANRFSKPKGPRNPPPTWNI
The test is classed as functional.

The target in test [22] is T5, Tyrosine-protein phosphatase non-receptor type 22. Type of test: functional. This is another data set of the same source.
Test [23] has as its target T6, Tyrosine-protein phosphatase non-receptor type 7 (Homo sapiens, UniProt P35236).
T6 sequence (P35236 whole entry): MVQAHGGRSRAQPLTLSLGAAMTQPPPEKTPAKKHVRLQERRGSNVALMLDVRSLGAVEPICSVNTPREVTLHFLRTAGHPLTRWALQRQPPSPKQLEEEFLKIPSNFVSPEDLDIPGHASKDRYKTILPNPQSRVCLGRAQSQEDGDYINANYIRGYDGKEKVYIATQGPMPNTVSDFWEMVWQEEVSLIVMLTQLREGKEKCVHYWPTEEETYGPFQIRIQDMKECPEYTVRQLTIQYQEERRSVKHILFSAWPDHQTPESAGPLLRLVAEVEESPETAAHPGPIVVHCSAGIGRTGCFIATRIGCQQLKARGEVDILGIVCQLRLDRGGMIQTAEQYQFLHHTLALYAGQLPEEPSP
Type of test: functional.

Test [24] addresses T5, Tyrosine-protein phosphatase non-receptor type 22. The test can be described thus: PubChem AID 2135.
For test [25] the target is unchanged. Put plainly: PubChem AID 2140.
For test [26] the target is unchanged. Put plainly: inhibition of lymphoid tyrosine phosphatase LYP – biochemical, pCAP fluorogenic substrate, fluorescence, set 3, SAR follow-up (AID 449727). Type of test: functional.
The target in test [27] is Voltage-dependent T-type calcium channel subunit alpha-1H (Homo sapiens, UniProt O95180). The test can be described thus: human CACNA1H calcium influx blockade – cell-based, synthetic library set 2, HEK293 HH8, Fluo-4, SAR follow-up (AID 493023). The test is classed as functional.

Each structure is given as a SMILES string. Active and inactive are the calls of the source. Some results are limits rather than exact numbers.

Chain of DNA damage-inducible transcript 3 protein (P35639 whole entry): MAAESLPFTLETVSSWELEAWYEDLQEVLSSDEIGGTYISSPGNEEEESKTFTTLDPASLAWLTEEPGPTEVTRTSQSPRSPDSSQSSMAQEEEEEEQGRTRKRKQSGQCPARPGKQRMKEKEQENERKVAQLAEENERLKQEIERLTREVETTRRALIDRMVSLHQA
Chain of X-box-binding protein 1 (P17861 whole entry): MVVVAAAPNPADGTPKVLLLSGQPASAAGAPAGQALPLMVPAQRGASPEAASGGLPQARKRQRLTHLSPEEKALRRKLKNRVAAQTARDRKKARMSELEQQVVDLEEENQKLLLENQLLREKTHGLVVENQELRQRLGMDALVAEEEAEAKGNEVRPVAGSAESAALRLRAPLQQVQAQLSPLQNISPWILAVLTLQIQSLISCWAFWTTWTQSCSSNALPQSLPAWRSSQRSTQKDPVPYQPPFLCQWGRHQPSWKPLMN
Chain of Voltage-dependent T-type calcium channel subunit alpha-1H (O95180 whole entry): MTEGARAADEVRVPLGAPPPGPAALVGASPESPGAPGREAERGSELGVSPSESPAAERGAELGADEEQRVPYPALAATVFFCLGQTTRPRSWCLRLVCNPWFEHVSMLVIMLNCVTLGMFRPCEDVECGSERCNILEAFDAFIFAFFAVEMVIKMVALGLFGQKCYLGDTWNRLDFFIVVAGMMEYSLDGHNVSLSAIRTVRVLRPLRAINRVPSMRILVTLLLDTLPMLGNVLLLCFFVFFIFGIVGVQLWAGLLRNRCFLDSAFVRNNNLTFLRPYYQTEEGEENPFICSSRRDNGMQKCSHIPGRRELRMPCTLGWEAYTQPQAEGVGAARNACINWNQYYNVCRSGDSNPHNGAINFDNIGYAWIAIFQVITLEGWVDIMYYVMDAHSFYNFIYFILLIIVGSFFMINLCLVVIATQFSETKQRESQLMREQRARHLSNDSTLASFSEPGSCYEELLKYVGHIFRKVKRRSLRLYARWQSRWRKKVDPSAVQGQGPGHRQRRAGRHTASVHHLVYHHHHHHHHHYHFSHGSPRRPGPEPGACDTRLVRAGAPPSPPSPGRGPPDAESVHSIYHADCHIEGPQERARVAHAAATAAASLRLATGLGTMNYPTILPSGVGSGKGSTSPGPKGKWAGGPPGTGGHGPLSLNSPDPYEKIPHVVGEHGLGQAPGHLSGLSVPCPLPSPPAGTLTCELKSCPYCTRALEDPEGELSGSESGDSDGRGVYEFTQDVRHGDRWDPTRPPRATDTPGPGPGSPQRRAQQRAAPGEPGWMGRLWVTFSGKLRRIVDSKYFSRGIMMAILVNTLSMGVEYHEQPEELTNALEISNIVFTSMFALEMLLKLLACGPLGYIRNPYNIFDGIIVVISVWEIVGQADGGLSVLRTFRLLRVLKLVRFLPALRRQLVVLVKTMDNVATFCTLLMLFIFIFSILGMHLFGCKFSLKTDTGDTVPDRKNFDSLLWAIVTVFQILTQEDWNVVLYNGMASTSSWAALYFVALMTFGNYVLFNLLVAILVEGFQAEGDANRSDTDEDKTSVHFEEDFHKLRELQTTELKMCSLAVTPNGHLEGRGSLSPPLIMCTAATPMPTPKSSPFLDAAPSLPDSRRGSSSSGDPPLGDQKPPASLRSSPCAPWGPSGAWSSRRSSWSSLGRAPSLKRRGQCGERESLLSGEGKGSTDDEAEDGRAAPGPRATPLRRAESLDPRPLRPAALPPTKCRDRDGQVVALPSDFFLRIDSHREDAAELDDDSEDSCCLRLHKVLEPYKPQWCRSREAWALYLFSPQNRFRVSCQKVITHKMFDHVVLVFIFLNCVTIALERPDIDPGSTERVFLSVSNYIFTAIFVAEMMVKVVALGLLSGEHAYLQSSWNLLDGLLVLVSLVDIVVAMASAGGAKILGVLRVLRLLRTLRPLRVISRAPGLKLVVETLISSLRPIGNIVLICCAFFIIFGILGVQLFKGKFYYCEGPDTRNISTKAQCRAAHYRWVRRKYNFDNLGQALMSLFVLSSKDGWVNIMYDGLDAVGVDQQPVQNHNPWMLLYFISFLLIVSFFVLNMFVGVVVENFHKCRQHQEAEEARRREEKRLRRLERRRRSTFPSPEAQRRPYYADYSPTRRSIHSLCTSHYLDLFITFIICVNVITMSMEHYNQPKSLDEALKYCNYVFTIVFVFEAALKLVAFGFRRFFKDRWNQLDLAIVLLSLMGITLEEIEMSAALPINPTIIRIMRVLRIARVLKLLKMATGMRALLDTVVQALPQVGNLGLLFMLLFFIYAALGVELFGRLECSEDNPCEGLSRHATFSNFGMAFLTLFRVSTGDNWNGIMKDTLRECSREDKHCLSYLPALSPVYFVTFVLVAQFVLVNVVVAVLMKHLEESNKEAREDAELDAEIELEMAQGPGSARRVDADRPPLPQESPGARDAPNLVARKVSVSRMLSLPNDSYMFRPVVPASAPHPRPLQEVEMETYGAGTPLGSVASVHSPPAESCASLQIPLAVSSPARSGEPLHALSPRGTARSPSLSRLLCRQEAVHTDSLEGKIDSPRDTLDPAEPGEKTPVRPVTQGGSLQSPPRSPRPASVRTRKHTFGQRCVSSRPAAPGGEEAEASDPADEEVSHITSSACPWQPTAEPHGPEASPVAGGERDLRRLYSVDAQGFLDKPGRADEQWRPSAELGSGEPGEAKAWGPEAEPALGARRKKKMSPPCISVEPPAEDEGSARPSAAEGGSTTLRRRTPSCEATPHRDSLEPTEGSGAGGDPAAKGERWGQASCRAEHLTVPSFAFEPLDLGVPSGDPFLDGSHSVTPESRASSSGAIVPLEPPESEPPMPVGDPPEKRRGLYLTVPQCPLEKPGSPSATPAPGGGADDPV

In the case of `O=C1NN(c2ccccc2)C(=O)/C1=C/c1ccc(Sc2ccc(Cl)cc2)o1`, in [1], the “Absolute IC50 (CHOP)” value was found to be 10 µM. The CC50 in [2] was > 20 µM (active). Also, the “Absolute IC50 (XBP1)” value on X-box-binding protein 1 came out at 10 µM.
As to `O=C(c1ccc(C[S+]([O-])c2ccccc2Cl)o1)N1CCN(c2ccccc2)CC1` (stereo not given), the EC50 in [3] was < 0.1 µM (active); in [4], 0.464 µM (inconclusive); in test [5], 1.16 µM (active); in “cells”, > 12 µM (not active); in [6] it was 0.464 µM (active); in test [7], 8.01 µM (active). Further, the 50% effective concentration (EC50) in test [8] was 1.46 µM (active); in test [9] it was 0.614 µM (active); with BJ [10], 1.18 µM (active); in test [11], 1.46 µM (inconclusive); in [12] it was 0.811 µM (inconclusive); in the test with BJ [13], 25.9 µM (active). Moreover, the 50% effective concentration (EC50) was 0.811 µM (active) in [14], 1.22 µM (active) with BJ [15] and 2.83 µM (active) in test [16].
On to `COc1cccc2sc(N(CCCN(C)C)C(=O)c3ccc(S(=O)(=O)N4CCc5ccccc5C4)cc3)nc12`, for which the concentration at half-maximal activity (AC50) in [17] was 23.1 µM (active). The half-inhibitory concentration (IC50) was 10.8 µM (active) in [18], 13.9 µM (active) in [19] and > 20 µM (inactive) at Bcl-2-related protein A1. In test [20], the EC50 was > 100 µM (inactive).
With `Cc1cccnc1-n1c(C)nc2ccccc2c1=O`, the IC50 in test [21], in [22] and in test [23] was > 79.4 µM (inactive) throughout.
Consider `CCOc1ccc2nc(NC(=O)CSC3=Nc4sc(C)c(C)c4C(=O)C3)sc2c1`, for which the IC50 is > 100 µM (inactive) in [24], 43.4 µM (active) in test [25] and > 100 µM (inactive) in test [26].
Take `CC(C)(C)CCN1CCC[C@H](NC(=O)COc2ccccc2F)C1`: in test [27], the 50% effective concentration (EC50) was 10 µM (active).
